Reference: patent publication US20080293689A1, “Compounds with Atypical Antipsychotic Activity” (SIGMA-TAU INDUSTRIE FARMACEUTICHE RIUNITE S.P.A., priority 2004, published 2008)
Where “and” joins values, the source holds several entries; their conditions need not be identical. Equal entries are not always repeated.

How the values were obtained:
[1] = system: avoidance response; assay: Active avoidance test; assay type: in vivo; settings: Rattus norvegicus; male Fischer 344 rats; oral, 60 minutes prior to the test; read-out: Inhibition of avoidance response (ED50)
Source text: Effect of Treatment in Active Avoidance Test.
The administration of incremental doses of an antipsychotic drug in the rat causes inhibition of the active avoidance response and an increase in the number of escape responses without any increase in failures. This change in the animal's avoidance behaviour is characteristic of the effect of the administration of a compound endowed with anti-psychotic activity. Therefore, the evaluation of such behaviour enables us to detect and determine the antipsychotic capacity of a product.
Male Fischer 344 rats weighing 180 g (Charles River) were used.
To carry out the test to assess the avoidance behaviour of the rats a piece of equipment was used (Ugo Basile) consisting of a plastic cage divided into two compartments by a partition wall with an aperture in it allowing communication between the two sectors. Each of the two sectors can be illuminated by a 10 Watt lamp placed above a plexiglas lid covering the cage. A programming device allows the regulation of the duration and frequency of the unconditioned and discriminatory stimuli and a computerised system acquires the experimental data. […]
Before treatment with the study compounds, the animals were selected in relation to their ability to master the task. […] The results were expressed as means and standard errors.

[2] = system: catalepsy; assay: in vivo; settings: male, Wistar, rat, po, Induction of catalepsy (ED50)
Protocol: Effect of Treatment in Catalepsy Test.
(§1) The test was carried out on male rats of the Wistar strain (n=7 animals); evaluation of catalepsy was done by means of a metal rod measuring 0.6 cm in diameter positioned at a distance of 10 cm from the work surface. […] Subsequent observations were recorded at 60, 90, 120, 180, 240, and 300 minutes after administration.

[3] = system: catalepsy; settings: rat, in vivo, po, 100 mg/kg
Protocol: Effect of Treatment in Catalepsy Test.
as §1

[4] = molecular target: T1, 5HT2a receptor (Rattus norvegicus, UniProt P14842); assay: Radioligand binding to 5HT2a receptor (prefrontal cortex, 3H-ketanserin)
T1 construct: using different cerebral areas (striate D1 and D2; prefrontal cortex 5HT2a); from tissue; host or cells: prefrontal cortex
T1 sequence (P14842 whole entry): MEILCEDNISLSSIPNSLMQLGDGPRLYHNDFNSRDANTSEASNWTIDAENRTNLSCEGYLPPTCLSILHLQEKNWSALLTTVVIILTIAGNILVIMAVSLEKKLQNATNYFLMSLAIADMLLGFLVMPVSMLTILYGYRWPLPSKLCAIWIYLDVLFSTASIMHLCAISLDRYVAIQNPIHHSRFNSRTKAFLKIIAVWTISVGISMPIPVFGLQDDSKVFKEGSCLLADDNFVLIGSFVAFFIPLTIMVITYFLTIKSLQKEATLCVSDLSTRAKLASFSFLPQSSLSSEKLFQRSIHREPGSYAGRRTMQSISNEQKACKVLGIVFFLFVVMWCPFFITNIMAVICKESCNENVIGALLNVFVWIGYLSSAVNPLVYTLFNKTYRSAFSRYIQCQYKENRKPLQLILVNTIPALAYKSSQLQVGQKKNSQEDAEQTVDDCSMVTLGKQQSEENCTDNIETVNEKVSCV
Protocol: (§2) For the D2 receptor ^3H-Spiperone (0.2 nM) was used and the non-specific binding was determined in the presence of 100 μM of (−)sulpiride. As regards the D3 receptor, the radioligand selected 3H-7-OH-DPAT was used at the concentration of 0.2 μM and the non-specific binding was obtained in the presence of dopamine 10 μM. Lastly, interaction with 5HT2a was evaluated using ^3H-ketanserin (0.7 μM) and the non-specific binding was determined in the presence of methysergide 1 μM.

[5] = molecular target: T2, cloned dopamine receptor subtype 3 (Rattus norvegicus, UniProt P19020); assay: Radioligand binding to D3 receptor (transfected Sf9 cell membranes, 3H-7-OH-DPAT)
T2 construct: purchased Signal Screen; host or cells: Sf9 cells
T2 sequence (P19020 whole entry): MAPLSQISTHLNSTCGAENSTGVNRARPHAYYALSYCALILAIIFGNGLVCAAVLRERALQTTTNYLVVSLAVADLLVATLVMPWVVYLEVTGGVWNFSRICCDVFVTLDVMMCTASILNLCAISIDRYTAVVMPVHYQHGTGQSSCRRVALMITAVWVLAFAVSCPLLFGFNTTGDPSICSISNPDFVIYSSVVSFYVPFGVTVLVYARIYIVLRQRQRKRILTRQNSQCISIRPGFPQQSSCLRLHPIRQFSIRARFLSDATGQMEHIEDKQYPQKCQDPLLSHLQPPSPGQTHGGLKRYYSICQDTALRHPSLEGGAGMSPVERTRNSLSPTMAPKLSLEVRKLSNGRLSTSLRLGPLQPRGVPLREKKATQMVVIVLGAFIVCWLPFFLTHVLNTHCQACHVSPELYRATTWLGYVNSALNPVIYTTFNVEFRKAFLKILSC
Protocol: as §2

[6] = molecular target: D1 receptor (Rattus norvegicus, UniProt P18901)
Sequence of D1 receptor (P18901 whole entry): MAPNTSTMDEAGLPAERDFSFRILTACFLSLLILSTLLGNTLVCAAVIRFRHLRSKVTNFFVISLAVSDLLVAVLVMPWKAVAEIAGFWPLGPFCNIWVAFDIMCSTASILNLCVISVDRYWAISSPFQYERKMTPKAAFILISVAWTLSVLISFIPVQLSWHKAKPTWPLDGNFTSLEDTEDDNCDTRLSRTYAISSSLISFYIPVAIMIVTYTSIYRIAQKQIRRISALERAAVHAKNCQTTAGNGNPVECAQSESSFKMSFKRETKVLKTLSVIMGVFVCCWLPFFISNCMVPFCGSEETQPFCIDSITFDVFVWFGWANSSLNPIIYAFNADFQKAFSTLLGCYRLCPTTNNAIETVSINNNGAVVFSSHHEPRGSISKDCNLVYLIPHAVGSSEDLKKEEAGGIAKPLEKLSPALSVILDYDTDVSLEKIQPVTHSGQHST
Protocol: as §2

Row | SMILES | ED50 [1] | ED50 [2] | Presence of catalepsy [3] | 5HT2A pKi [4] | Log Y ([4]; from relative affinity for 5HT2, D2 and D1, classic >6.48, atypical <6.48) | Ki ([4]; prefrontal cortex, 3H-ketanserin) | Ki [5] | D1 pKi [6] | Ki ([6]; read-out: D1 (Ki: nM), striate, [3H]-SCH 23390)
1 | CN1CCN(C2=Nc3cc(Cl)ccc3Nc3ccccc32)CC1 [Clozapine, reference compound] | 4.9 mg/kg and 15 µmol/kg | 100 mg/kg and 276 µmol/kg | – | – | – | – | – | – | –
2 | CN1CCN(C2=Cc3ccccc3Cn3cccc32)CC1 [ST2329, 11-(4-Methylpiperazin-1-yl)-5H-pyrrolo[2,1-b][2]benzazepine] | 0.56 mg/kg and 2 µmol/kg | – | no presence of catalepsy was detected | 8.14 | 3.20 | 7.2 nM | 224 nM | 6.90 | 125 nM
